Values of other authors, collected in publication PMC12195707, “Evaluation of Antitumoral Activity in a 3D Cell Model of a Src Inhibitor Prodrug for Glioblastoma Treatment” (Pharmaceutics, 2025).

Tests used:
[1] = target: Src; parameters: method as in PMID 28650650; details: cited from earlier work
[2] = test system: U87MG xenograft; parameters: method as in PMID 28650650; details: nude mice, in combination with radiotherapy; cited from earlier work
[3] = test system: U87 GBM cells; parameters: method as in PMID 12564978; details: cited from earlier work
[4] = test system: CAS-1 GBM cells; parameters: method as in PMID 12564978; details: CAS-1 cells; cited from earlier work

SMILES	Ki [1] [nM]	U87MG xenograft growth [2]	Activity in GBM cells [3]	Activity in GBM cells [4]
ClC(Cn1ncc2c(Nc3cccc(Br)c3)nc(SCCN3CCOCC3)nc21)c1ccccc1 (stereo not shown) [SI306, N-(3-bromophenyl)-1-(2-chloro-2-phenylethyl)-6-((2-morpholinoethyl)thio)-1H-pyrazolo[3,4-d]pyrimidin-4-amine]	130	strongly arrested U87MG xenograft growth		
O=C(OCCOCCO)N(c1cccc(Br)c1)c1nc(SCCN2CCOCC2)nc2c1cnn2CC(Cl)c1ccccc1 (stereo not shown) [SI306-PD2, 2-(2-Hydroxyethoxy)ethyl (3-Bromophenyl)(1-(2-chloro-2-phenylethyl)-6-((2-morpholinoethyl)thio)-1H-pyrazolo[3,4-d]pyrimidin-4-yl)carbamate]			active	active
